Assay results reported in patent publication US4426390A, “Novel β-lactam compounds, process for producing thereof, and use thereof as medicines” (Sanraku-Ocean Co., Ltd., priority 1980, dated 1984).
In brackets after ≈: the same amount, converted by molar mass.

Key:
Serratia marccscens T55 = test: Disc assay of synergy, inhibition zones; format: cell-based; conditions: disc OA-6129B2, PS-5 100 μg/ml, CER, PCG 1000 μg/ml
Experimental: (§1) (B) The presence or absence of synergy is visually checked by the size difference in inhibitory zones observed when the test drug is disc-assayedon an agar plate of a detector microbe and on an agar plate of the detector containing cephaloridine or benzylpenicillin, respectively.
(§2) One loopful of the stock culture of a test organism is inoculated in heat infusion broth (5 ml/tube), and grown at 37° C. for 18 hours. The culture broth is diluted to a final concentration of about 10^5 cells/ml in nutrient agar with or without benzyl penicillin or cephaloridine, and plated in a Petri dish with a diameter of 9 cm, as shown below.
(§3) Using the above-prepared agar plates, antibiotic PS-5 (100 μg/ml), antibiotic OA-6129B2 (5,6-trans OA-6129B) (100 μg/ml), benzylpenicillin (1000 μg/ml) and cephaloridine (1000 μg/ml) are subjected to disc assay.

[1] = tested on: Citrobacter Freundii GN346; test: Disc assay of synergy, inhibition zones; format: cell-based; conditions: disc OA-6129B2, PS-5 100 μg/ml, CER, PCG 1000 μg/ml
Experimental: as §1, §2, §3

Proteus vulgaris GN76 = test: Disc assay of synergy, inhibition zones; format: cell-based; conditions: disc OA-6129B2, PS-5 100 μg/ml, CER, PCG 1000 μg/ml
Experimental: as §1, §2, §3

Enterobacter cloacac 45 = test: Disc assay of synergy, inhibition zones; format: cell-based; conditions: disc OA-6129B2, PS-5 100 μg/ml, CER, PCG 1000 μg/ml
Experimental: as §1, §2, §3

[2] = Stability (half life) in phosphate buffers of various pH; format: physicochemical; conditions: 28° C.
Experimental: By adding 2% sodium hydroxide or 10% hydrochloric acid, the pH of 0.05 M phosphate buffer is adjusted to 4, 5, 6, 7, 8 and 9, respectively, and distributed into test tubes in an amount of 3 ml. Concentrated solution of antibiotic OA-6129A (0.05 ml) is added to each test tube and allowed to stand in a thermostatic chamber of 28° C. The time course curve of the concentration decrease of antibiotic OA-6129A is drawn by spectrophotometric measurement at 300 nm, from which the half life of the antibiotic at the indicated pH is calculated. As a control, antibiotic PS-5, a carbapenem compound described in the above-cited reference is simultaneously tested.

P. rettgeri P7 = test: MIC by agar dilution method; format: cell-based; conditions: Providencia rettgeri; P. rettgeri P7; agar dilution, 37° C., 18 hours; read-out: MIC
Experimental: (§4) The MIC is measured by an agar dilution method based on the standard method of the Japanese Society of Chemotherapy (Japanese Society of Chemotherapy: The Revised Method of Determination of MIC Values, Chemotherapy 22, 1126-1128, […]). Specifically, the antibiotic is serially diluted with a 1/50 M phosphate buffer at a pH of 7.3 to prepare a twofold dilution series. One milliliter of each dilution and 9 ml of an agar medium (Heart Infusion Agar; a product of Difco Laboratories) are mixed and allowed to solidify in a Petri dish having a diameter of 9 cm. One loopful of the stock culture of the test microbe is inoculated in trypto-soy buillon (a product of Eiken Kagaku Co., Ltd.) and incubated at 37° C. for 18 hours. The resulting culture broth is diluted to a concentration of about 10^6 cells/ml with physiological saline and inoculated on the agar plate by means of a microplanter.

[3] = tested on: Staphylococcus aureus 209P; test: MIC by agar dilution method; format: cell-based; conditions: 37° C., 18 hours
Experimental: as §4

S. aureus Russell = test: MIC by agar dilution method; format: cell-based; conditions: Staphylococcus aureus; S. aureus Russell; agar dilution, 37° C., 18 hours; read-out: MIC
Experimental: as §4

[4] = tested on: Enterobacter aerogenes E19; test: MIC by agar dilution method; format: cell-based; conditions: Klebsiella aerogenes, 37° C., 18 hours
Experimental: as §4

[5] = tested on: Bacillus subtillis ATCC 6633; test: MIC by agar dilution method; format: cell-based; conditions: ATCC6633; Bacillus subtillis ATCC 6633; agar dilution, 37° C., 18 hours; read-out: MIC
Experimental: as §4

[6] = tested on: Citrobacter Freundii GN346; test: MIC by agar dilution method; format: cell-based; conditions: 37° C., 18 hours
Experimental: as §4

Proteus mirabilis P6 = test: MIC by agar dilution method; format: cell-based; conditions: Proteus mirabilis P6; agar dilution, 37° C., 18 hours; read-out: MIC
Experimental: as §4

P. vulgaris GN76 = test: MIC by agar dilution method; format: cell-based; conditions: Proteus vulgaris, 37° C., 18 hours
Experimental: as §4

Ser. marcesceus T55 = test: MIC by agar dilution method; format: cell-based; conditions: 37° C., 18 hours
Experimental: as §4

Providencia sp. P8 = test: MIC by agar dilution method; format: cell-based; conditions: Providencia sp. P8; agar dilution, 37° C., 18 hours; read-out: MIC
Experimental: as §4

Ent. cloacae 45 = test: MIC by agar dilution method; format: cell-based; conditions: Enterobacter cloacae, 37° C., 18 hours
Experimental: as §4

S. aureus Smith = test: MIC by agar dilution method; format: cell-based; conditions: Staphylococcus aureus, 37° C., 18 hours
Experimental: as §4

Serratia marcesceus S18 = test: MIC by agar dilution method; format: cell-based; conditions: 37° C., 18 hours
Experimental: as §4

S. epidermidis = test: MIC by agar dilution method; format: cell-based; conditions: Staphylococcus epidermidis, 37° C., 18 hours
Experimental: as §4

Ent. sp. E8 = test: MIC by agar dilution method; format: cell-based; conditions: Ent. sp. E8; agar dilution, 37° C., 18 hours; read-out: MIC
Experimental: as §4

Sarcina lutea S19 = test: MIC by agar dilution method; format: cell-based; conditions: Micrococcus luteus, 37° C., 18 hours
Experimental: as §4

Escherichia coli K-12 = test: MIC by agar dilution method; format: cell-based; conditions: K12; Escherichia coli K-12; agar dilution, 37° C., 18 hours; read-out: MIC
Experimental: as §4

Alcaligenes Faecolis A1 = test: MIC by agar dilution method; format: cell-based; conditions: Alcaligenes Faecolis A1; agar dilution, 37° C., 18 hours; read-out: MIC
Experimental: as §4

[7] = tested on: Pseudomonas aenginosa IFO3445; test: MIC by agar dilution method; format: cell-based; conditions: 37° C., 18 hours
Experimental: as §4

E. coli RGN823 = test: MIC by agar dilution method; format: cell-based; conditions: Escherichia coli, 37° C., 18 hours
Experimental: as §4

[8] = tested on: Klebsiella pneumoniae K13; test: MIC by agar dilution method; format: cell-based; conditions: 37° C., 18 hours
Experimental: as §4

Comamonas terrigena B996 = test: MIC by agar dilution method; format: cell-based; conditions: 37° C., 18 hours
Experimental: as §4

Ps. aeruginosa NCTC10490 = test: MIC by agar dilution method; format: cell-based; conditions: Pseudomonas aeruginosa, 37° C., 18 hours
Experimental: as §4

[9] = plate: + PCG, reduced to 5 μg/ml (final concentration)

## CC1(C)S[C@@H]2[C@H](NC(=O)Cc3ccccc3)C(=O)N2[C@H]1C(=O)O [PCG, benzylpenicillin]
Serratia marccscens T55; plate: + CER
  diameter of inhibition zones: 0 mm
Serratia marccscens T55; [9]
  diameter of inhibition zones: tr.
Serratia marccscens T55; plate: None
  diameter of inhibition zones: tr.
[1]; plate: + CER
  diameter of inhibition zones: 0 mm
[1]; plate: + PCG
  diameter of inhibition zones: 0 mm
[1]; plate: None
  diameter of inhibition zones: 0 mm
Proteus vulgaris GN76; plate: + CER
  diameter of inhibition zones: 0 mm
Proteus vulgaris GN76; plate: + PCG
  diameter of inhibition zones: 0 mm
Proteus vulgaris GN76; plate: None
  diameter of inhibition zones: 0 mm
Enterobacter cloacac 45; plate: + CER
  diameter of inhibition zones: 0 mm
Enterobacter cloacac 45; plate: + PCG
  diameter of inhibition zones: 0 mm
Enterobacter cloacac 45; plate: None
  diameter of inhibition zones: 0 mm

## CCC1C(=O)N2C(C(=O)O)=C(SCCNC(C)=O)CC12 (centres unmarked) [PS-5, reference compound]
[2]; pH 4, 0.05 M phosphate buffer
  half-life: 0.2 h
[2]; pH 5, 0.05 M phosphate buffer
  half-life: 3.43 h
[2]; pH 6, 0.05 M phosphate buffer
  half-life: 13.2 h
[2]; pH 7, 0.05 M phosphate buffer
  half-life: 38.2 h
[2]; pH 8, 0.05 M phosphate buffer
  half-life: 78 h
[2]; pH 9, 0.05 M phosphate buffer
  half-life: 36.2 h
Serratia marccscens T55; Serratia, T55, plate: None, read-out: diameter of inhibition zones
  zone of inhibition at 100 µg/mL: 23.5 mm
Serratia marccscens T55; plate: + CER
  diameter of inhibition zones: 34.0 mm
Serratia marccscens T55; [9]
  diameter of inhibition zones: 24.0 mm
[1]; Citrobacter freundii, GN346, plate: None, read-out: diameter of inhibition zones
  zone of inhibition at 100 µg/mL: 22.5 mm
[1]; plate: + CER
  diameter of inhibition zones: 24.0 mm
[1]; plate: + PCG
  diameter of inhibition zones: 23.5 mm
Proteus vulgaris GN76; Proteus vulgaris, GN76, plate: None, read-out: diameter of inhibition zones
  zone of inhibition at 100 µg/mL: 17.5 mm
Proteus vulgaris GN76; plate: + CER
  diameter of inhibition zones: 23.5 mm
Proteus vulgaris GN76; plate: + PCG
  diameter of inhibition zones: 25.0 mm
Enterobacter cloacac 45; Enterobacter, 45, plate: None, read-out: diameter of inhibition zones
  zone of inhibition at 100 µg/mL: 20 mm
Enterobacter cloacac 45; plate: + CER
  diameter of inhibition zones: 22.5 mm
Enterobacter cloacac 45; plate: + PCG
  diameter of inhibition zones: 21.0 mm
P. rettgeri P7
  MIC: 3.13 µg/mL (≈ 10.5 µM)
[3]
  MIC: 0.024 µg/mL (≈ 0.0804 µM)
S. aureus Russell
  MIC: 0.2 µg/mL (≈ 0.67 µM)
[4]
  MIC: 3.13 µg/mL (≈ 10.5 µM)
[5]
  MIC: 0.1 µg/mL (≈ 0.335 µM)
[6]
  MIC: 3.13 µg/mL (≈ 10.5 µM)
Proteus mirabilis P6
  MIC: 6.25 µg/mL (≈ 20.9 µM)
P. vulgaris GN76
  MIC: 6.25 µg/mL (≈ 20.9 µM)
Ser. marcesceus T55
  MIC: 6.25 µg/mL (≈ 20.9 µM)
Providencia sp. P8
  MIC: 3.13 µg/mL (≈ 10.5 µM)
Ent. cloacae 45
  MIC: 3.13 µg/mL (≈ 10.5 µM)
S. aureus Smith
  MIC: 0.2 µg/mL (≈ 0.67 µM)
Serratia marcesceus S18
  MIC: 3.13 µg/mL (≈ 10.5 µM)
S. epidermidis
  MIC: 0.2 µg/mL (≈ 0.67 µM)
Ent. sp. E8
  MIC: 3.13 µg/mL (≈ 10.5 µM)
Sarcina lutea S19
  MIC: 0.1 µg/mL (≈ 0.335 µM)
Escherichia coli K-12
  MIC: 1.56 µg/mL (≈ 5.23 µM)
Alcaligenes Faecolis A1
  MIC: 0.78 µg/mL (≈ 2.61 µM)
[7]
  MIC: 12.5 µg/mL (≈ 41.9 µM)
E. coli RGN823
  MIC: 3.13 µg/mL (≈ 10.5 µM)
[8]
  MIC: 3.13 µg/mL (≈ 10.5 µM)
Comamonas terrigena B996
  MIC: 0.012 µg/mL (≈ 0.0402 µM)
Ps. aeruginosa NCTC10490
  MIC: 12.5 µg/mL (≈ 41.9 µM)
